Results as given in patent US20130302825A1, “USES OF MACROPHAGE MANNOSE RECEPTOR TO SCREEN COMPOUNDS AND USES OF THESE COMPOUNDS” (Merck, priority 2010, published 2013).

Biological target: T1, mannose receptor (Rattus norvegicus, UniProt A0A8I5XVS2)
T1 construct: NR8383 rat alveolar macrophages were obtained from ATCC; host or cells: NR8383 rat alveolar macrophages
T1 sequence (A0A8I5XVS2 1-1431): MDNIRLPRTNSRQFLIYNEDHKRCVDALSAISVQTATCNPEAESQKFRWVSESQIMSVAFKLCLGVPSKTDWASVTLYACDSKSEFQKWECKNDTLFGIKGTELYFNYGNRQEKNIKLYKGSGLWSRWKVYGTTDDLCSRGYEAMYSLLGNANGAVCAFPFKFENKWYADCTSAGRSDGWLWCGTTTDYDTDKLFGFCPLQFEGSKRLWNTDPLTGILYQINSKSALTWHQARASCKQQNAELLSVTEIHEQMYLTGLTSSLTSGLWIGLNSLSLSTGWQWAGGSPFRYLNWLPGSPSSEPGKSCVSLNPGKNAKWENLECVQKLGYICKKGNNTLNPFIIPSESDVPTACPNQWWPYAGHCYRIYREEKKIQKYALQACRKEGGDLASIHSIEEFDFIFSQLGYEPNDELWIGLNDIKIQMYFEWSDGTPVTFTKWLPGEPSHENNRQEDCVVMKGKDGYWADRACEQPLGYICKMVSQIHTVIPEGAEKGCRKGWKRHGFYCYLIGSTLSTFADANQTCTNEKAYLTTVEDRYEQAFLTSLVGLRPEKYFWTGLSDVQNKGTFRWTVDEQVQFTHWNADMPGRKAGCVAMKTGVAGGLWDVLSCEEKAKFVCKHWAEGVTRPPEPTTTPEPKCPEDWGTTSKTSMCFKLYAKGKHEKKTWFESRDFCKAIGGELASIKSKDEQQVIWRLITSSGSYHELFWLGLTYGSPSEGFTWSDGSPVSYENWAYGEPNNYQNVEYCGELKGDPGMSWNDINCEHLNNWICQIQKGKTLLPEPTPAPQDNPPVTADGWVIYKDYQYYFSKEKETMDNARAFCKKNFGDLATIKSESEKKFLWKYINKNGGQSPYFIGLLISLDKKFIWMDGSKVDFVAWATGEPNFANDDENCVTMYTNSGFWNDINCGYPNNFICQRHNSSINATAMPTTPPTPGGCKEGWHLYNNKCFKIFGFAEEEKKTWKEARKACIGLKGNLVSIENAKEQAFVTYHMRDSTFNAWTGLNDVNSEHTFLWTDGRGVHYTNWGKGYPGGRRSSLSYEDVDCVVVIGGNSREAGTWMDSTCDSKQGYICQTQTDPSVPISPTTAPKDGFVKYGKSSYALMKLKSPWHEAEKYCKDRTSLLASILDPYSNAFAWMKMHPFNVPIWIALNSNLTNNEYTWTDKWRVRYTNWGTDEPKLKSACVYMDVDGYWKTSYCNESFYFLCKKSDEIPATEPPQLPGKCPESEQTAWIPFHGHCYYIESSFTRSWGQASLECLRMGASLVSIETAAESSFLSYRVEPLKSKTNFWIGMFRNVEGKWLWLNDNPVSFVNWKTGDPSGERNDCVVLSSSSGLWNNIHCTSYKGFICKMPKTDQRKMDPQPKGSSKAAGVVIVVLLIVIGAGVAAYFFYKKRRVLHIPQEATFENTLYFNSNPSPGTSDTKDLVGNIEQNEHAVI
Assay: Uptake of Alexa488-SI-0052 in NR8383 in the presence of competing sugars
Format: cell-based
Details: 250 nM Alexa488-SI-0052, varying sugar concentrations; FIG. 1b
Method: NR8383 rat alveolar macrophages were obtained from ATCC and cultured in gelatin coated flasks in F12K medium +15% heat inactivated FBS+antibiotics. For uptake experiments, NR8383 were seeded in gelatin coated 96 well plates and allowed to reach confluence. […] Each condition was carried out in triplicate. […] Cells were transferred to V-bottom 96 well plates and centrifuged (800 g, 7 min, 4C) to collect. Pellets were washed with cold 5 mM EDTA and again centrifuged. Cells were then resuspended in 1% paraformaldehyde in PBS and stored at 4C in the dark until analysis.
Uptake of Alexa488-SI-0052, as measured by cellular fluorescence, was assessed using flow cytometry (FACSCalibur). The geometric mean of fluorescence for 5000-10000 cells was measured for each sample. Mannose specific uptake was taken to be the difference between total uptake (without mannan) and the uptake in the presence of mannan (non-specific uptake).
The uptake of Alexa488-SI-0052 was measured, as described above, in the presence of various sugars known to have varying affinities for the mannose receptor. NR8383 were incubated with a constant concentration of Alexa488-SI-0052 (250 nM, chosen because this concentration lies on the concentration dependent portion of the Alexa488-SI-0052 uptake curve) and varying concentrations of α-methyl mannose (α-MM), glucose and galactose.

Row | Compound | Interference with Alexa488-SI-0052 uptake (rank order)
1 | O=C[C@H](O)[C@@H](O)[C@@H](O)[C@H](O)CO [galactose] | then galactose
2 | COC1O[C@H](CO)[C@@H](O)[C@H](O)[C@@H]1O (stereo partly drawn) [α-MM, α-methyl mannose] | interferes the most
